{"source": "patent US11872261B2", "about": "“Lipoprotein targeting protease inhibitors and uses” (The United States of America, as represented by the …, priority 2016, dated 2024)", "assay": "Clinical pilot study: plasma lipids before and after rosuvastatin", "format": "in vivo, human", "conditions": "28 days vs baseline", "protocol": "This Example describes a small clinical pilot study which assessed the impact of statins on lipoprotein-associated proteins in healthy individuals (n=10) with normal LDL-C (<130 mg/dL), who were treated with the statin rosuvastatin (available commercially as Crestor®) (20 mg/day) for 28 days. Proteomic analysis of size-exclusion chromatography isolated LDL, HDL-L (large) and HDL-S (small) fractions and spectral counting was used to compare relative protein detection before and after statin therapy. Significant protein changes were found in each lipoprotein pool and included both increases and decreases in several proteins involved in lipoprotein metabolism, complement regulation, and acute phase response. Fasting blood samples were obtained from ten healthy volunteers participating in a study of the NIH Center for Human Immunology, intended to evaluate effects of a statin on the immune system. This protocol was approved by the institutional review board of the National Heart, Lung, and Blood Institute (NHLBI) and registered at clinicaltrials.gov (NCT01200836); all participants provided written informed consent. Three males and seven females were enrolled, with an average age of 44.1±11 years. Participants were selected to have normal LDL-C (<130 mg/dL) and were not on any lipid modification therapy prior to the study. Recruited participants were given rosuvastatin (20 mg/day) for 28 days. Blood was collected by venipuncture at the following time points: baseline, 14 and 28 days after rosuvastatin treatment, and 14 days after stopping treatment (washout). Samples were stored at -20° C. Because samples were taken from each participant at baseline and on-treatment, each subject acted as their own control. Lipid and lipoprotein assays were performed on a Siemens Dimension Vista analyzer, using standard enzymatic assays. HDL-C was measured by a direct assay (Siemens) and LDL-C was determined by the Friedewald equation. Lipoprotein particle numbers and average particle sizes were determined from heparinized plasma on a […] Clinical Analyzer (LipoScience).", "data": [{"smiles": "CC(C)c1nc(N(C)S(C)(=O)=O)nc(-c2ccc(F)cc2)c1/C=C/[C@@H](O)C[C@@H](O)CC(=O)O", "note": "[rosuvastatin]", "values": [{"measurement": "increase of HDL-C", "setting": "20 mg/day, not statistically significant", "value": 3.6, "unit": "%"}, {"measurement": "change in LDL-C", "setting": "20 mg/day, p<0.001", "value": "−50", "unit": "%"}, {"measurement": "change in triglyceride", "setting": "20 mg/day, p<0.01", "value": "−29", "unit": "%"}, {"measurement": "change in total cholesterol", "setting": "healthy subjects n=10, 20 mg/day, p<0.001", "value": "−28", "unit": "%"}]}]}
